Experiment: in vitro
Conditions: human, hela cells, % viability

Compound | viability at 28.5 h, 10 µM [%]
Cc1cc(C)n(CC(=O)NCC(c2c(F)cccc2F)N(C)C)n1 (stereo not shown) [CBK305510] | 96.7
OC1(c2cccnc2)C2CCCC1CN(Cc1ccc(F)cc1)C2 (stereo not shown) [CBK285204] | 89.8
O=C(Nc1nc2c(s1)CCCCC2)C1CN(C(=O)Cc2ccc(F)cc2)C1 [CBK285904] | 87.2
Cc1c(CN2CCCC2(C)C(=O)NC2CCCC2)cnn1C (stereo not shown) [CBK281960] | 108
COc1ccc(/C=N/NC(=O)CCn2c3ccccc3c3ccccc32)cc1O [CBK262343] | 46
COc1cc(Cl)cc(/C=N\NC(=O)C2C(=O)NCC2c2ccccc2)c1O (stereo not shown) [CBK262825] | 91.8
Cc1ccc(C2(O)CCN(Cc3cnn(C)c3C)CC2)cc1 [CBK282736] | 96.5
CCn1ncnc1CN1CCN(Cc2ccccc2CO)CC1 [CBK306717] | 88.1
O=C(Cc1ccccc1)N1CCc2c([nH]c3ccccc23)C12CCNC2 (stereo not shown) [CBK059461] | 98.9
COc1ccc(-c2cc([C@H]3CN4CC[C@H]3C[C@@H]4CNC(=O)c3ccco3)n(C)n2)cc1 [CBK289099] | 113
Cc1sc2ncn(CC(=O)NCc3nnc4n3CCC4)c(=O)c2c1C [CBK305654] | 93.8
O=C(Cn1nc(N2CCSCC2)ccc1=O)Nc1ccccc1 [CBK307623] | 97.2
CC1(C)CC(=O)C=C(C(=O)NCc2ccc3c(c2)OCO3)O1 [CBK153290] | 98.3
CC(C)(C)c1cc(C(=O)Nc2ccccn2)n(Cc2ccc(Cl)cc2Cl)n1 [CBK107361] | 89.6
Clc1ccc(OCc2n[nH]c(-c3ccccn3)n2)cc1 [CBK269472] | 90.2
COC(=O)c1cccc2c3c([nH]c12)CCCC3 [CBK000423] | 87.8
O=C(Nc1cccc(O)c1)c1ccc(NC(=O)C2CCCO2)cc1 (stereo not shown) [CBK269746] | 91.6
O=C(Cc1ccsc1)N1CCCC2(CCN(Cc3ccccc3)C2)C1 (stereo not shown) [CBK136868] | 86.7
O=C(Cn1nc2n(c1=O)CCCCC2)NCC(O)c1ccc(F)cc1 (stereo not shown) [CBK305187] | 95.6
Cc1ccc2cc(COc3cccnc3[N+](=O)[O-])c(Cl)nc2c1C [CBK297113] | 103
CC(C)Nc1nccnc1OCCN1CCOCC1 [CBK113410] | 104
CS(=O)(=O)c1ccc(-n2nnnc2CN2CCC3(CCCCC3)C2)cc1 [CBK306183] | 91.1

Compound | viability at 28.5 h, 10 µM [%]
CCCc1[nH]nc(O)c1Cc1ccccc1C(F)(F)F [CBK075037] | 92.7
CC(C)C(C(=O)O)N(C)C(=O)OCc1ccccc1 (stereo not shown) [CBK286593] | 84.8
Cc1ccc2c(c1)C(C)(c1ccccc1)CC(C)(C)N2C(=O)CSc1nncn1C (stereo not shown) [CBK022397] | 98.8
CC1CCCCN1CC(=O)Nc1ccccc1Oc1ccccc1 (stereo not shown) [CBK023182C] | 95.1
CC(NC(=O)N(Cc1c[nH]c(-c2ccccc2)n1)CC(C)(C)CN)c1cccc2ccccc12 (stereo not shown) [CBK026801C] | 96.3
NS(=O)(=O)c1ccc(NC(=O)CSc2nc3sc4c(c3c(=O)n2-c2ccc(Cl)cc2)CCCC4)cc1 [CBK267577] | 91.9
O=C(N[C@H]1CCN2C(=O)N(c3ccc(Br)cc3)C(=O)[C@@H]2C1)c1cccnc1 [CBK289557] | 104
CCS(=O)(=O)N1CCCCCC1c1nn(C)cc1Cl (stereo not shown) [CBK284672] | 83.6
O=C(O)CCc1ccc(-c2cccs2)n1CCOc1ccccc1Cl [CBK267885] | 89
CCCc1cc(C(N)=O)c(NC(=O)c2cc(-c3ccc(C)o3)nc3ccccc23)s1 [CBK267766C] | 90.9
Cc1ccccc1C1(O)CCN(CC(O)c2ccc3c(c2)OCCCO3)CC1 (stereo not shown) [CBK286332] | 103
CCN(CC)CCCNC(=O)N1CCCC(C(=O)N(CC)CC)C1 (stereo not shown) [CBK156149] | 94.1
Cc1c(C(=O)O)sc(S(=O)(=O)N2CCN(C(=O)Cc3ccccc3Cl)CC2)c1C(=O)O [CBK297137] | 107
Cc1ccc(-c2nnc(CNC(=O)c3cccc(Cl)c3)o2)s1 [CBK284646] | 79.1
Cc1nnc(NCCN2CCOCC2)nc1O [CBK267912] | 98.5
O=c1[nH]c(=O)c2cc(S(=O)(=O)Nc3cccc(CCc4ccncc4)c3)ccc2[nH]1 [CBK286397] | 103
COc1ccc(CC(=O)NC(CCSC)c2nc3ccccc3[nH]2)cc1 (stereo not shown) [CBK306050] | 82.6
Cc1cc(C)cc(OC(C)C(=O)N2CCCc3c(cnn3C)C2)c1 (stereo not shown) [CBK285270] | 82.1
COc1ccc(CN(C(=O)CCc2c(C)[nH]c(=O)c(C#N)c2C)C2CC2)cc1 [CBK295667] | 97.6
Nc1ncnc2c1ncn2[C@@H]1O[C@H](CCl)[C@H](O)C1O (stereo partly shown) [CBK201252] | 98.8
CC(c1ccc(F)c(F)c1)N(C)C(=O)Cn1[nH]c(=O)ccc1=O (stereo not shown) [CBK305810] | 81.2
CC(C)c1ccc(S(=O)(=O)Nc2cccnc2)cc1 [CBK043884] | 97.9

Compound | viability at 28.5 h, 10 µM [%]
COc1cccc2cc(C(=O)C3=C(O)C(=O)N(CCN4CCOCC4)C3c3cccc(Cl)c3)oc12 (stereo not shown) [CBK266599] | 100
O=C(Nc1ccccn1)c1cnn(-c2ccc(Cl)cc2)c1C(F)(F)F [CBK107442] | 92.2
Cc1ccc(CN(Cc2[nH]cnc2C)C2CC(C)(C)NC(C)(C)C2)o1 [CBK283176] | 96.7
Cn1c(=O)c2c(ncn2Cc2noc(-c3ccoc3)n2)n(C)c1=O [CBK304945] | 86.3
Cc1nccnc1N1CCC2(CCCN(CC3CCC3)C2=O)C1 (stereo not shown) [CBK306806] | 103
Cc1cc2c(cc1S(=O)(=O)NCCc1ccccc1)NC(=O)CO2 [CBK270196] | 102
CN1CCN(S(=O)(=O)c2ccc(F)cc2)CC1 [CBK050491] | 88
COc1ccc(C)cc1S(=O)(=O)Nc1cc(NCCCN2CCOCC2)c2occc2c1 [CBK067837C] | 105
COc1cc(C)c(Nc2cc(-c3ccc(CC(C)C)cc3)ncn2)cc1OC [CBK090785] | 91.2
Cn1ccnc1C1(O)CCN(C(=O)NC2CCCCC2)CC1 [CBK282275] | 91.8
Cn1c(Cc2ccc(Cl)cc2)nnc1SCc1nc2ccccc2c(=O)n1-c1cccc(C(F)(F)F)c1 [CBK268425] | 112
O=S(=O)(NCc1ccccc1)c1cc(S(=O)(=O)c2ccc(Cl)cc2)ccc1Cl [CBK263207] | 109
Cc1ccc(-n2c(SCC(N)=O)nnc2-c2ccccc2O)c(C)c1 [CBK269673] | 89.6
O=[N+]([O-])c1ccc(CN2CCC(Oc3nccnc3OCc3cccnc3)CC2)cc1 [CBK083162T] | 95.8
CSCC[C@H](NC(=O)OC(C)(C)C)C(=O)NCc1csc(-c2ccccc2)n1 [CBK092345] | 88
O=C1CC(N2CCC(c3nc4ccccc4s3)CC2)C(=O)N1Cc1ccccc1 (stereo not shown) [CBK267438] | 90
NC(=O)c1cccc(-n2cc(-c3ccsc3)nn2)c1 [CBK113076] | 86.4
CC1CCN(Cc2ccc(-c3cn(CC(=O)NCc4ccc(OC(F)(F)F)c(F)c4)nn3)cc2)CC1 [CBK167536] | 87.3
COCOc1ccc(-c2ncc(OC)nc2NC(=O)c2cc3ccccc3s2)cc1 [CBK145250] | 103
COc1ccc(S(=O)(=O)N(c2ccccc2)C2CCNCC2)cc1OC [CBK165076T] | 73.9
Nc1ncc([C@@H]2O[C@H](CO)[C@H](O)C2O)c(=O)[nH]1 (stereo partly shown) [CBK201205] | 78.1
O=C(O)c1ccc2[nH]cc(CN3CCOCC3)c2c1 [CBK287081] | 89.9

Compound | viability at 28.5 h, 10 µM [%]
NC(=O)CSc1ccccc1 [CBK010649] | 91.2
O=[N+]([O-])c1ccc(S(=O)(=O)CC(CN2CCCCC2)N2CCCCC2)cc1 (stereo not shown) [CBK267070] | 100
CCCc1[nH]nc(O)c1Cc1ccccc1CS(=O)(=O)c1ccccc1 [CBK074347] | 87.8
O=C(OCCN1C[C@H]2CCCCC2C1c1ccccc1)c1ccc(Br)cc1 (stereo partly shown) [CBK016175C] | 104
Cc1ccc(S(=O)(=O)NC(C)(C)CSc2ccccc2)cc1 [CBK268354] | 88.6
COc1ccc(C(=O)NC(=S)Nc2ccc(N3CCN(C)CC3)cc2)cc1[N+](=O)[O-] [CBK266098C] | 89
CCCS(=O)(=O)n1ccn(-c2ccc(Cl)c(Cl)c2)c1=O [CBK106667] | 110
O=C(CN1CCC(c2cncc(-c3cccc(C(F)(F)F)c3)n2)CC1)N1CCCC1 [CBK286152] | 94.3
COc1ccc2nc(Nc3nc(C)c(C(C)=O)s3)sc2c1 [CBK287483] | 94.8
CC(=O)c1ccccc1NC(=O)CSCC(=O)O [CBK057752] | 92.2
CCc1nc2cccnc2n1CCNC(=O)c1cccs1 [CBK283638] | 94.3
O=C1N2CCSC2=NC1(Nc1nccs1)C(F)(F)F (stereo not shown) [CBK267484] | 84.1
C=Cn1ncc(CN(CCCN(C)C)Cc2ccco2)c1C [CBK283228] | 96.8
CC1=NN(c2ccc([N+](=O)[O-])cc2)C(=O)/C1=C\NCCc1ccc(S(N)(=O)=O)cc1 [CBK263006] | 92.6
CCN1C(=O)c2ccccc2C(=O)[C@@]2(C)CN(C(=O)C3CC3)C[C@@H]12 [CBK284567] | 81.5
Cc1ccc(OCC(=O)N2CCN(S(=O)(=O)c3ccc4ccccc4c3)CC2)cc1 [CBK264200] | 115
CCCNC(=O)C(C)NC(=O)C1=Cc2ccccc2OC1 (stereo not shown) [CBK297937] | 95.2
O=C(O)c1cccc(NS(=O)(=O)c2cccnc2)c1 [CBK155700] | 101
COCCC(=O)Nc1ccc(N2CCNCC2)nc1 [CBK004749T] | 92.2
CCC(=O)Nc1nnc(-c2ccc3c(c2)OCCO3)o1 [CBK287404] | 92.6
O=C(CCc1cn2ccccc2n1)NCc1cc2n(n1)CCCNC2 [CBK307157] | 88.8
O=C(NCCCN1CCN(Cc2ccccc2)CC1)c1cn2cc(C(F)(F)F)cc(Cl)c2n1 [CBK074654] | 89.3
